Experimental data published in patent publication US8871815B2, “Therapeutic compounds” (Signature Therapeutics, Inc., priority 2007, dated 2014).

Legend:
GABAA receptor = assay: Rat hippocampal brain slice electrophysiology assay; assay type: cell-based; details: in the presence of EC20 of muscimol (2 μM); CA1 population spike; read-out: EC50, potentiation of the action of agonists at the GABAA receptor
Protocol: Rat hippocampal slices were prepared as follows: Male Wistar rats (100-125 g) were anesthetized with isoflurane and decapitated, the brains quickly removed, collected, blocked, and cut using a vibratome (OTS-4000, Electron Microscope Sciences) into 400 micron (μm) transverse sections. Slices were transferred to a warmed (33° C.), submerged tissue-recording chamber perfused at 2.5-3 ml/min with modified artificial cerebrospinal fluid (120 mM sodium chloride, 3.5 mM, potassium chloride, 2.5 mM calcium chloride, 1.3 mM magnesium chloride, 1.25 mM sodium phosphate, 26 mM sodium carbonate, 10 mM glucose, saturated with 95% oxygen, pH 7.4). […]
Electrophysiology testing was accomplished as follows: A glass rod electrode (1-2 μM tip diameter) was filled with 3M sodium chloride (NaCl) and placed in the CA1 pyramidal cell layer of hippocampal slices. […] Population responses of the CA1 pyramidal cells were recorded with an Axoprobe-1A (Axon Instruments, Molecular Devices, Sunnyvale, Calif.). pCLAMP 8.2 (Axon Instruments) was used for acquiring the data, and Clampfit (Axon Instruments) was used for analysis. […] Peak to peak amplitude of the population response from each stimulus was measured as an indicator of cell excitability. […]
Data were acquired and analyzed using Clampfit and Excel (Microsoft), and reported as mean and individual values.

[1] = target: T1, phosphodiesterase 2 (PDE2) (Homo sapiens, UniProt O00408); assay: Cerep Diversity Profile: enzymes, PDE2; assay type: biochemical; details: tested at 10 μM; read-out: inhibition of control binding, PDE2
T1 construct: Cerep, Inc

[2] = Anesthetic effects in rats, bolus IV, Loss of Righting Reflex (LORR); assay type: in vivo, rat; details: male, Sprague-Dawley, rat, in vivo; bolus IV, rats; read-out: MTD (maximum tolerated dose)
Protocol: (§1) Also measured was minimum dose to achieve LORR and maximum tolerated dose (MTD).
(§2) The ranges of doses studied were 1.9, 2.3, 3.0, 7.0, 13.7, 14.0 and 15.2 mg/kg for Compound 1 and 3.5, 4.0, 7.0 and 14.0 mg/kg for […].

male Sprague-Dawley rats = assay: as above; assay type: in vivo, rat; details: rats
Protocol: as §1, §2

rats = assay: Separate rat study, bolus IV, 1% in cremaphor, sleep time; assay type: in vivo; details: 7 mg/kg bolus IV, rats
Beagle dogs = assay: Hemodynamic effects (blood pressure) in beagle dogs, bolus IV; assay type: in vivo, dog; details: 4 min after administration
Protocol: The study was a crossover design. […] The MTD was defined as the dose that reduced mean arterial blood pressure (MAP) by 50% or to less than 50 millimeters of mercury (mmHg or mm Hg). All animals received supplemental oxygen and, if needed, ventilatory support after 4 min of apnea.
Hemodynamic data, such as mean arterial pressure (MAP), were recorded at baseline, 1, 2, 4, 8, 15, 20 and 30 min. Compound 1 was administered at 5, 10, 15 and 30 mg/kg to 3, 6, 6 and 3 dogs respectively. […] Data were analyzed with a 2-way ANOVA followed by t-test with Bonferroni correction for multiple comparisons.

mongrel dogs = assay: Anesthetic and hemodynamic effects in chronically instrumented mongrel dogs, total intravenous anesthesia; assay type: in vivo, dog
Protocol: Assessments included hemodynamic performance parameters such as blood pressure, heart rate, and cardiac output as well as clinical chemistry parameters and EEG analysis.
General anesthesia was induced in the dogs by IV administration of 7 mg/kg […], and the dogs were tracheally intubated and mechanically ventilated. General anesthesia was maintained using 2.2% end-tidal sevoflurane in oxygen. A thoracotomy was performed at the fifth left intercostal space, and heparin-filled catheters were placed in the proximal descending thoracic aorta (P50 pressure transducer Gould, Oxnard, Calif.), and in the right and left atria to provide IV access. An ultrasonic transit-time flow probe (T108, Transonic Systems, Ithaca, N.Y.) was placed around the ascending thoracic aorta. A […] Doppler flow probe (Model HDP-20-3.5, Triton Surgical Technologies, San Diego, Calif.) was placed around the left anterior descending coronary artery. Six MHz sonomicrometer crystals (Hartley, Houston, Tex.) were implanted in the subendocardium. A high fidelity micromanometer (P7, Konigsberg Instruments, Pasadena, Calif.) was inserted into the left ventricle. […]
The dogs were fasted overnight. […] EEG was recorded continuously during the experiment. Arterial blood gas and chemistry measures included pH, pO2, sO2, pCO2, tCO2, carbonate, potassium, sodium, and base excess, and were measured immediately following blood draws using a blood gas and chemistry analyzer (ABL-505, Radiometer, Copenhagen). […] Following stabilization, baseline measurements of EEG, hemodynamics, ECG, and blood gases were recorded. Blood samples were drawn for PK and clinical chemistry, and pressure volume loops were generated and data recorded.
Following induction, the dogs were tracheally intubated, and mechanically ventilated using 50% oxygen in nitrogen throughout the subsequent drug infusion and recovery periods. […] MAP was monitored continuously, and dosing was discontinued immediately if MAP decreased below 50 mmHg at any time or if the heart rate increased over 200 beats per minute. […]

pigs = assay: in vivo; details: 384 μg per kg per min, pigs
Protocol: Experiments were performed on commercial farm-bred swine of either sex (mean weight 33.6 kg). Anesthesia was induced with isoflurane. Intravascular access was obtained from an ear vein. Each pig was intubated and mechanically ventilated. Tissue oxygenation was monitored using continuous pulse oximetry placed on the tongue. Ventilation was monitored using an inspired/expired gas analyzer that measured oxygen, carbon dioxide, and potent inhalation agent concentrations. Ventilator settings were adjusted as needed to maintain steady state.
ECG was monitored throughout the study. Arterial blood pressure was monitored through the cannulated left femoral artery. MAP, systolic and diastolic arterial pressures and heart rate were collected every 5 seconds. An internal jugular vein was cannulated with a pulmonary artery catheter for thermodilution estimates of cardiac output and blood temperature. Body temperature was maintained at 37° C. Instrumentation for EEG monitoring was accomplished using an adhesive electrode array over the fronto-occipital regions (Aspect Medical. Norwood, Mass., USA).
Metabolic and hemodynamic parameters for each group were compared at multiple time points using an unpaired two-tailed Student t test. To account for multiple comparisons and maintain the probability of a type I error below 0.05, P values less than 0.025 were considered significant.

T1 sequence (O00408 whole entry): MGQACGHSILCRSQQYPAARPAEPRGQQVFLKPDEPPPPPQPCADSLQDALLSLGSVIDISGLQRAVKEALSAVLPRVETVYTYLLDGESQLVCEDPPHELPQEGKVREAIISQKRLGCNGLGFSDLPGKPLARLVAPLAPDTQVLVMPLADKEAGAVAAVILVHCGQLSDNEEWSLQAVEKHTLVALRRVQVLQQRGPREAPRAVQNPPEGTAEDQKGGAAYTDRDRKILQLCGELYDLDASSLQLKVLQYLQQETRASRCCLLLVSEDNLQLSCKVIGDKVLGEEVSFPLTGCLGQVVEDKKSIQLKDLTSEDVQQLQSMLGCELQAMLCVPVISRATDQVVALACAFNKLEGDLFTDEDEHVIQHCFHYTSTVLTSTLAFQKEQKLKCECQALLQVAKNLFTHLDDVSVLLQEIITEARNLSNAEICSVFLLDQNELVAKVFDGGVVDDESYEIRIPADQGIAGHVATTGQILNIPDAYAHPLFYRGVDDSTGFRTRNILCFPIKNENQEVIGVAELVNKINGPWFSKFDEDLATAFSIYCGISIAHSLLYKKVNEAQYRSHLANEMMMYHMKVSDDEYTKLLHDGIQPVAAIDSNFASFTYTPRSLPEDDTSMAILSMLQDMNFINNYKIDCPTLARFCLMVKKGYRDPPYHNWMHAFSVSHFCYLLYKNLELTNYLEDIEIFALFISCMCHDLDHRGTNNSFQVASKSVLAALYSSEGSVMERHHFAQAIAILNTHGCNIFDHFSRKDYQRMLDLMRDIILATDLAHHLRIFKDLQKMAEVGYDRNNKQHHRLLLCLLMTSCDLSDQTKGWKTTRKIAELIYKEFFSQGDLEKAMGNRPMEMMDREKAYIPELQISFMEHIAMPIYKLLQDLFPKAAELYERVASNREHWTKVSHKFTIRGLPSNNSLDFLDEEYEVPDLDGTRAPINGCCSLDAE

CC[C@@H](C)c1cccc([C@H](C)CC)c1O [Compound 1]
EC50 (GABAA receptor): 2.5 µM | inhibition at 10 µM [1]: > 20% | MTD [2]: 14 mg/kg | deaths (male Sprague-Dawley rats; 15.2 mg/kg bolus IV): Two rats died | HD50 (dose required to cause 50% of the rats to lose righting reflex) (male Sprague-Dawley rats; bolus IV): 2.1 mg/kg | HD7min (dose required to produce 7 minutes of anesthesia) (male Sprague-Dawley rats; bolus IV): 2.3 mg/kg | TI (therapeutic index, ratio of MTD to HD7 min) (male Sprague-Dawley rats; bolus IV): 6.1 | Sleep Time (duration of anesthesia) (rats): 23 min | MAP % change from baseline (Beagle dogs; 10 mg/kg bolus IV): +11% | MAP % change from baseline (Beagle dogs; 15 mg/kg bolus IV): −25% | MAP % change from baseline (Beagle dogs; 30 mg/kg bolus IV): −41% | MAP and heart rate results compared to propofol (mongrel dogs): no statistically significant differences | Cardiac output versus baseline (mongrel dogs; IV bolus then stepwise IV infusions 0.25-2.0 mg/kg/min): no statistically significant reduction | IV infusion time producing maximal suppression of BIS (pigs): 14.7 ± 3.8 min
